Assay results taken from patent US20060293307A1, “Oxazolidinone derivatives as antimicrobials” (priority 2002, published 2006).
Converted amounts (≈) assume the structure as drawn. Read-outs that look alike come from different tables or passages of the source.

Experiments:
H. influenzae P318 = experiment: MIC against Haemophilus strains; assay type: cell-based; settings: Haemophilus influenzae; s. No. 10, H. influenzae P318; read-out: MIC
H. influenzae 1381 = experiment: MIC against Haemophilus strains; assay type: cell-based; settings: Haemophilus influenzae; s. No. 7, H. influenzae 1381; read-out: MIC
H. influenzae 1745 = experiment: MIC against Haemophilus strains; assay type: cell-based; settings: Haemophilus influenzae; s. No. 9, H. influenzae 1745; read-out: MIC
139 = experiment: MIC, agar incorporation method; assay type: cell-based
Method in brief: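 Doubling dilutions of compound in DMSO were incorporated into Mueller-Hinton agar; 10^4 CFU/spot inoculated from 0.5 McFarland suspensions and incubated 18 h (24 h for MRSN studies). MIC = lowest concentration without visible growth; valid only when ATCC reference strains gave in-range MICs.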

H. influenzae 49766 = experiment: MIC against Haemophilus strains; assay type: cell-based; settings: Haemophilus influenzae; s. No. 6, H. influenzae 49766; read-out: MIC
H. influenzae 35056 = experiment: MIC against Haemophilus strains; assay type: cell-based; settings: Haemophilus influenzae; s. No. 1, H. influenzae 35056; read-out: MIC
H. influenzae 451 = experiment: MIC against Haemophilus strains; assay type: cell-based; settings: Haemophilus influenzae; s. No. 8, H. influenzae 451; read-out: MIC
[1] = tested on: M. avium intracellulare 926/98; experiment: MIC against MAC strains, agar dilution; assay type: cell-based; settings: S. No. 14 Mai-6, M. avium intracellulare 926/98, Middle Brook 7H10 + OADC, 37° C., 14-21 days
[2] = tested on: M. intracellulare ATCC 13950; experiment: MIC against MAC strains, agar dilution; assay type: cell-based; settings: S. No. 06 Mi-1, M. intracellulare ATCC 13950, Middle Brook 7H10 + OADC, 37° C., 14-21 days
M. tuberculosis M-168 = experiment: MIC against M. tuberculosis strains, agar dilution; assay type: cell-based, Mycobacterium tuberculosis; settings: Middle Brook 7H10 + OADC, 37° C., 14-21 days
M. tuberculosis PC [3] = experiment: MIC against M. tuberculosis strains, agar dilution; assay type: cell-based, Mycobacterium tuberculosis; settings: S. No. 22 Mt-, Middle Brook 7H10 + OADC, 37° C., 14-21 days
M. tuberculosis PC [4] = experiment: MIC against M. tuberculosis strains, agar dilution; assay type: cell-based, Mycobacterium tuberculosis; settings: S. No. 19 Mt-, Middle Brook 7H10 + OADC, 37° C., 14-21 days
M. avium ATCC 49601 = experiment: MIC against MAC strains, agar dilution; assay type: cell-based, Mycobacterium avium; settings: S. No. 01 Ma-1, M. avium ATCC 49601, Middle Brook 7H10 + OADC, 37° C., 14-21 days
M. avium AIIMS = experiment: MIC against MAC strains, agar dilution; assay type: cell-based, Mycobacterium avium; settings: S. No. 04 Ma-4, M. avium AIIMS, Middle Brook 7H10 + OADC, 37° C., 14-21 days
M. avium ATCC 1723 = experiment: MIC against MAC strains, agar dilution; assay type: cell-based, Mycobacterium avium; settings: S. No. 03 Ma-3, M. avium ATCC 1723, Middle Brook 7H10 + OADC, 37° C., 14-21 days
M. tuberculosis PC [5] = experiment: MIC against M. tuberculosis strains, agar dilution; assay type: cell-based, Mycobacterium tuberculosis; settings: S. No. 17 Mt-, Middle Brook 7H10 + OADC, 37° C., 14-21 days
M. tuberculosis PC [6] = experiment: MIC against M. tuberculosis strains, agar dilution; assay type: cell-based, Mycobacterium tuberculosis; settings: S. No. 16 Mt-, Middle Brook 7H10 + OADC, 37° C., 14-21 days
M. tuberculosis PC 4782 = experiment: MIC against M. tuberculosis strains, agar dilution; assay type: cell-based, Mycobacterium tuberculosis; settings: Middle Brook 7H10 + OADC, 37° C., 14-21 days
M. tuberculosis PC 4793 = experiment: MIC against M. tuberculosis strains, agar dilution; assay type: cell-based, Mycobacterium tuberculosis; settings: Middle Brook 7H10 + OADC, 37° C., 14-21 days
[7] = tested on: M. avium intracellulare 19/97; experiment: MIC against MAC strains, agar dilution; assay type: cell-based; settings: S. No. 17 Mai-10, M. avium intracellulare 19/97, Middle Brook 7H10 + OADC, 37° C., 14-21 days
M. tuberculosis 50 = experiment: MIC against M. tuberculosis strains, agar dilution; assay type: cell-based, Mycobacterium tuberculosis; settings: S. No. 12 Mt-, Middle Brook 7H10 + OADC, 37° C., 14-21 days
M. tuberculosis ATCC = experiment: MIC against M. tuberculosis strains, agar dilution; assay type: cell-based, Mycobacterium tuberculosis; settings: Mycobacterium tuberculosis, S. No. 03 Mt-, Middle Brook 7H10 + OADC, 37° C., 14-21 days, read-out: MIC
[8] = Mycobacterium avium, read-out: MIC
[9] = Mycobacterium tuberculosis, M168, S. No. 09 Mt-, read-out: MIC
[10] = Mycobacterium tuberculosis, read-out: MIC
[11] = Mycobacterium avium, ATCC49601, read-out: MIC
[12] = Mycobacterium tuberculosis, PC4782, S. No. 21 Mt-, read-out: MIC
[13] = Mycobacterium tuberculosis, PC4793, S. No. 23 Mt-, read-out: MIC

CC(=O)NC[C@H]1CN(c2ccc(N3CCN(c4ccc([N+](=O)[O-])o4)CC3)c(F)c2)C(=O)O1 [Compound No. 4, (S)—N-[[3-[3-Fluoro-4-[4-(5-nitro-2-furyl)-1-piperazinyl]phenyl]-2-oxo-5-oxazolidinyl]methyl]acetamide]
melting point: 191 to 204 °C

CC(=O)NC[C@H]1CN(c2ccc(N3CCN(c4ccc(C=O)o4)CC3)c(F)c2)C(=O)O1 [Compound No. 3, (S)—N-[[3-[3-Fluoro-4-[4-(5-formyl-2-furyl)-1-piperazinyl]phenyl]-2-oxo-5-oxazolidinyl]methyl]acetamide]
melting point: 176 °C
MIC (H. influenzae P318): 8 µg/mL (≈ 18.6 µM)
MIC (H. influenzae 1381): 8 µg/mL (≈ 18.6 µM)
MIC (H. influenzae 1745): 8 µg/mL (≈ 18.6 µM)
MIC 139: 0.5 µg/mL (≈ 1.16 µM)
MIC (H. influenzae 49766): 8 µg/mL (≈ 18.6 µM)
MIC (H. influenzae 35056): 4 µg/mL (≈ 9.29 µM)
MIC (H. influenzae 451): 8 µg/mL (≈ 18.6 µM)

CC(=O)NC[C@H]1CN(c2ccc(N3CCN(c4ccc([N+](=O)[O-])s4)CC3)c(F)c2)C(=O)O1 [Compound No. 1, (S)—N-[[3-[3-Fluoro-4-[4-(5-nitro-2-thienyl)-1-piperazinyl]phenyl]-2-oxo-5-oxazolidinyl]methyl]acetamide]
MIC [1, 8]: < 0.12 µg/mL
MIC ([2]; Mycobacterium intracellulare, ATCC13950, read-out: MIC): 16 µg/mL
MIC (M. tuberculosis M-168; [9]): 0.25 µg/mL
MIC (M. tuberculosis PC [3]; [10]): 0.5 µg/mL
MIC (M. tuberculosis PC [4]; [10]): ≤ 0.125 µg/mL
MIC (M. avium ATCC 49601; [11]): < 0.125 µg/mL
melting point: 171 to 174 °C
MIC (M. avium AIIMS; [8]): 0.25 µg/mL
MIC (H. influenzae P318): 16 µg/mL (≈ 34.5 µM)
MIC (M. avium ATCC 1723; Mycobacterium avium, ATCC1723, read-out: MIC): 0.25 µg/mL
MIC (H. influenzae 1381): 8 µg/mL (≈ 17.3 µM)
MIC (H. influenzae 1745): 16 µg/mL (≈ 34.5 µM)
MIC 139: 0.25 µg/mL (≈ 0.539 µM)
MIC (H. influenzae 49766): 8 µg/mL (≈ 17.3 µM)
MIC (M. tuberculosis PC [5]; [10]): 0.25 µg/mL
MIC (M. tuberculosis PC [6]; [10]): 0.25 µg/mL
MIC (M. tuberculosis PC 4782; [12]): 0.125 µg/mL
MIC (H. influenzae 35056): 8 µg/mL (≈ 17.3 µM)
MIC (H. influenzae 451): 16 µg/mL (≈ 34.5 µM)
MIC (M. tuberculosis PC 4793; [13]): > 32 µg/mL
MIC [7, 8]: 0.25 µg/mL
MIC (M. tuberculosis 50; [10]): 2 µg/mL

CO[C@H]1/C=C/O[C@@]2(C)Oc3c(C)c(O)c4c(O)c(c(/C=N/N5CCN(C)CC5)c(O)c4c3C2=O)NC(=O)/C(C)=C\C=C\[C@H](C)[C@H](O)[C@@H](C)[C@@H](O)[C@@H](C)[C@H](OC(C)=O)[C@@H]1C [RIF]
MIC [1]: 0.25 µg/mL
MIC [2]: 4.0 µg/mL
MIC (M. tuberculosis M-168; S. No. 09 Mt-): 16 µg/mL
MIC (M. tuberculosis PC [3]): 2.0 µg/mL
MIC (M. tuberculosis PC [4]): 0.06 µg/mL
MIC (M. avium ATCC 49601): <0.03 µg/mL
MIC (M. avium AIIMS): 4.0 µg/mL
MIC (M. avium ATCC 1723): 1.0 µg/mL
MIC (M. tuberculosis PC [5]): 2.0 µg/mL
MIC (M. tuberculosis PC [6]): 4.0 µg/mL
MIC (M. tuberculosis PC 4782; S. No. 21 Mt-): 0.06 µg/mL
MIC (M. tuberculosis PC 4793; S. No. 23 Mt-): 2.0 µg/mL
MIC [7]: >32 µg/mL
MIC (M. tuberculosis 50): >32 µg/mL

CN[C@H](CC(C)C)C(=O)N[C@H]1C(=O)N[C@@H](CC(N)=O)C(=O)N[C@H]2C(=O)N[C@H]3C(=O)N[C@H](C(=O)N[C@H](C(=O)O)c4cc(O)cc(O)c4-c4cc3ccc4O)[C@H](O)c3ccc(c(Cl)c3)Oc3cc2cc(c3O[C@@H]2O[C@H](CO)[C@@H](O)[C@H](O)[C@H]2O[C@H]2C[C@](C)(N)[C@H](O)[C@H](C)O2)Oc2ccc(cc2Cl)[C@H]1O [Vancomycin, reference compound]
MIC 139: > 16 µg/mL

CC(=O)NC[C@H]1CN(c2ccc(N3CCOCC3)c(F)c2)C(=O)O1 [Linezolid, reference compound]
MIC (M. tuberculosis M-168; [9]): 4 µg/mL
MIC (M. tuberculosis PC [3]; [10]): 32 µg/mL
MIC (M. tuberculosis PC [4]; [10]): 0.5 µg/mL
MIC (M. avium ATCC 49601; [11]): 0.5 µg/mL
MIC (H. influenzae P318): 16 µg/mL (≈ 47.4 µM)
MIC (H. influenzae 1381): 16 µg/mL (≈ 47.4 µM)
MIC (H. influenzae 1745): 16 µg/mL (≈ 47.4 µM)
MIC 139: 1 µg/mL (≈ 2.96 µM)
MIC (H. influenzae 49766): 16 µg/mL (≈ 47.4 µM)
MIC (M. tuberculosis PC [5]; [10]): 32 µg/mL
MIC (M. tuberculosis PC [6]; [10]): 32 µg/mL
MIC (M. tuberculosis PC 4782; [12]): 1 µg/mL
MIC (M. tuberculosis ATCC): 1 µg/mL
MIC (H. influenzae 35056): 8 µg/mL (≈ 23.7 µM)
MIC (H. influenzae 451): 16 µg/mL (≈ 47.4 µM)
MIC (M. tuberculosis PC 4793; [13]): 8 µg/mL
MIC (M. tuberculosis 50; [10]): > 32 µg/mL

CC(=O)NC[C@H]1CN(c2ccc(N3CCN(c4ccc(C=O)s4)CC3)c(F)c2)C(=O)O1 [Compound No. 2, (S)—N-[[3-[3-Fluoro-4-[4-(5-formyl-2-thienyl)-1-piperazinyl]phenyl]-2-oxo-5-oxazolidinyl]methyl]acetamide]
melting point: 180 °C (dec.)
MIC (H. influenzae P318): > 16 µg/mL
MIC (H. influenzae 1381): 8 µg/mL (≈ 17.9 µM)
MIC (H. influenzae 1745): > 16 µg/mL
MIC (H. influenzae 49766): > 16 µg/mL
MIC (H. influenzae 35056): 16 µg/mL (≈ 35.8 µM)
MIC (H. influenzae 451): 16 µg/mL (≈ 35.8 µM)
